Data on three molecules can be found in patent US20100204202A1, “DRUG FOR ALLEVIATING MOTOR COMPLICATIONS OR PSYCHIATRIC SYMPTOMS OF PARKINSON'S DISEASE” (Asubio Pharma Co., Ltd., priority 2007, published 2010).

Data set [1] concerns the target T1, human dopamine D2L receptors (Homo sapiens, UniProt P14416).
T1 construct: expressed in transfected cells; host or cells: CHO
Description: Agonist/antagonist assay, [35S]GTPgammaS binding, human dopamine D2L receptors. The format is biochemical. To be noted: for EC50 / Emax / IC50: Dopamine D2L; for antagonist activity (in words): human dopamine D2L receptors. The procedure:
(§1) For the tests, membrane specimens prepared from Chinese hamster ovary (CHO-K1) cells expressing human serotonin 1A receptors, Chinese hamster ovary (CHO) cells expressing human dopamine D2L receptors, Chinese hamster ovary (CHO) cells expressing human dopamine D2S receptors and Chinese hamster ovary (CHO) cells expressing human dopamine D3 receptors were used. In the agonist assays, for the serotonin 1A receptors, [^35S] GTPγS (final concentration 0.1 nM), a GDP solution (final concentration 3 μM), the test sample solution and a membrane specimen were added to a 20 mM Hepes-NaOH buffer (pH 7.4) containing 100 mM NaCl, 3 mM MgCl2 and 10 μg/mL saponin and allowed to react at 25° C. for 30 minutes. Further, for the dopamine (D2L, D2S and D3) receptors, [^35S] GTPγS (i.e., final concentration 0.1 nM), a GDP solution (final concentration 3 μM), the test sample solution and a membrane specimen were added to a 20 mM Hepes-NaOH buffer (pH 7.4) containing 100 mM NaCl, 10 mM MgCl2, 1 mM DTT and 1 mM EDTA and allowed to react at 30° C. for 15 minutes (in the case of D2L receptors) or for 30 minutes (in the cases of D2S and D3 receptors). Further, in the antagonist assays, except for adding to the reaction solutions 10 μM 5-carboxamide tryptamine (5-CT) (in the case of serotonin 1A receptors), 3 μM dopamine (in the cases of D2L and D2S receptors), or 0.1 μM dopamine (in the case of D3 receptors), operations were performed similar to the agonistic tests. After the end of the reaction, the reaction solution was filtered with a cell harvester, the filtered filter paper was transferred to a measurement vial, a liquid scintillator was added, and the radioactivity of the [^35S] GTPγS remaining on the filter paper was determined by a liquid scintillation counter. The human serotonin 1A receptor and human dopamine (D2L, D2S, and D3) receptor agonist/antagonist activities of the test sample were expressed as the rates of increase, when making the increase in [^35S] GTPγS bonds due to 10 μM 5-CT (in the case of serotonin 1A receptors), 3 μM dopamine (in the cases of D2L and D2S receptors), or 0.1 μM dopamine (in the case of D3 receptors) 100%. From the bond increasing rate, a regression formula was used to calculate the 50% reaction concentration (EC50) and 50% inhibition concentration (IC50).

Data set [2] has as its target T2, human dopamine D3 receptors (Homo sapiens, UniProt P35462).
T2 construct: expressed in transfected cells; host or cells: CHO
Briefly: Agonist/antagonist assay, [35S]GTPgammaS binding, human dopamine D3 receptors. To be noted: for agonist activity (in words) / antagonist activity (in words): human dopamine D3 receptors. Type of data set: biochemical. The procedure:
as §1

In data set [3] the target is T3, human dopamine D2S receptors (Homo sapiens, UniProt P14416).
T3 construct: expressed in transfected cells; host or cells: CHO
Briefly: Agonist/antagonist assay, [35S]GTPgammaS binding, human dopamine D2S receptors. The format is biochemical. To be noted: for EC50 / Emax / IC50: Dopamine D2S; for antagonist activity (in words): human dopamine D2S receptors. As for the experimental part: as §1

Data set [4] addresses T2, human dopamine D3 receptors. Description: Binding affinity test on human dopamine D3 receptors ([3H]spiperone, CHO membranes). The note with it: for binding affinity (in words): human dopamine D3 receptors. The procedure:
For the test, membrane specimens prepared from Chinese hamster ovary (CHO) cells expressing human dopamine D3 receptors were used. To a 50 mM Tris-HCl buffer (pH 7.4) containing 1.4 mM ascorbic acid, 0.001% BSA, and 150 mM NaCl, [^3H] spiperone (final concentration 0.7 nM), the test sample solution and a membrane specimens were added. The reaction solution was allowed to react at 37° C. for 2 hours, then the reaction solution was filtered with a cell harvester, the filtered filter paper was transferred to a measurement vial, a liquid scintillator was added and the receptor bond radioactivity remaining on the filter paper was determined by a liquid scintillation counter.
The following formula was used to calculate the binding inhibition rate: […]
Furthermore, the inhibition constant (Ki) was calculated.

The nature of data set [5]: Solubility (choice of solvent). Type of data set: physicochemical. To be noted: physiological saline. The procedure: Note that the SUN […] was subcutaneously administered right before levodopa administration, the sarizotan was orally administered about 20 minutes before levodopa dosage in accordance with above-mentioned known reports (Bibbiani F. et al., Neurology, 2001, 57, p. 1829-1834), and the Example Compound 4 of Japanese Patent Publication No. 2005-298402A was subcutaneously administered about 30 minutes before levodopa dosage in accordance with the above-mentioned Japanese Patent Publication No. 2005-298402A. Further, for the solvent, for SUN […] and Example Compound 4 of Japanese Patent Publication No. 2005-298402A, physiological saline was used.

In data set [6] the test system is rats. Briefly: Amount of locomotor activity. Type of data set: in vivo, rat. To be noted: 0.3, 1, and 3 mg/kg i.p.; minutes 0-15. From the text: For the test, Crl: CD(SD) male rats supplied by Charles River Japan were used (6 weeks old at start of test). For the forced swimming test, the method of the improved type reported by Lucki et al. (Lucki I., “The forced swimming test as a model for core and component behavioral effects of antidepressant drugs”, Behavioural Pharmacology, 1997, 8, p. 523-532; Cryan J. F. et al., “Assessing antidepressant activity in rodents: recent developments and future needs”, TRENDS in Pharmacological Sciences, 2002, 23, p. 238-245) was used. On day 1, each rat was placed in a cylinder filled with water (height 45 cm×diameter 30 cm, water depth 30 cm, water temperature 23° C., water depth set to depth by which back legs and tail of rat will not touch the bottom). The rat was taken out after 15 minutes. At this time, the immobility period (seconds) of minutes 10-15 (5 minutes) was recorded. Based on the results, the rats were assigned to five groups so that there would be no difference among the groups. On day 2, each rat was placed in a cylinder filled with water the same as day 1 and the immobility period (seconds), swimming behavior period (seconds), and climbing behavior period (seconds) of minutes 0-5 (5 minutes) were measured. […]

[7] abbreviates: 3 μM dopamine = 100%, read-out: Agonist assay Emax.
The mark [8] stands for this setting: with 3 μM dopamine, read-out: Antagonist assay Emax.
The mark [9] stands for this setting: Dopamine D3, 0.1 μM dopamine = 100%, read-out: Agonist assay Emax.
[10] abbreviates: Dopamine D3, read-out: Agonist assay EC50.
Where [11] appears, read: Dopamine D3, with 0.1 μM dopamine, read-out: Antagonist assay Emax.
The mark [12] stands for this setting: Dopamine D3, with 0.1 μM dopamine, read-out: Antagonist assay IC50.

Structures are written as SMILES. “Also recorded” adds a separate entry of the source. Structures can show the parent of a compound that is named as a salt. Where two headings read alike, the source gives them in different places.

T3 sequence (P14416 1-414 isoform P14416-2): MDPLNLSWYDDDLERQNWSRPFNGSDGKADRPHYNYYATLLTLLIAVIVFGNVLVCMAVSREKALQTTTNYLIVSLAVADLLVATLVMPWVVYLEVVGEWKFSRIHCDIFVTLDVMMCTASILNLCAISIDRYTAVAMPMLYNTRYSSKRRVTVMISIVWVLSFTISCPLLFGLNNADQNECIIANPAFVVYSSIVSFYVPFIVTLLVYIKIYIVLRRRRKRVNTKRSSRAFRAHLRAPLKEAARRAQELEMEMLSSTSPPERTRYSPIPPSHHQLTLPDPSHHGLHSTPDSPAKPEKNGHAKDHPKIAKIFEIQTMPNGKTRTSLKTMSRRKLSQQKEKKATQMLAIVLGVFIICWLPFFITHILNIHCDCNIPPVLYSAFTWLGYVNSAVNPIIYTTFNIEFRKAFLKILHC
T2 sequence (P35462 whole entry): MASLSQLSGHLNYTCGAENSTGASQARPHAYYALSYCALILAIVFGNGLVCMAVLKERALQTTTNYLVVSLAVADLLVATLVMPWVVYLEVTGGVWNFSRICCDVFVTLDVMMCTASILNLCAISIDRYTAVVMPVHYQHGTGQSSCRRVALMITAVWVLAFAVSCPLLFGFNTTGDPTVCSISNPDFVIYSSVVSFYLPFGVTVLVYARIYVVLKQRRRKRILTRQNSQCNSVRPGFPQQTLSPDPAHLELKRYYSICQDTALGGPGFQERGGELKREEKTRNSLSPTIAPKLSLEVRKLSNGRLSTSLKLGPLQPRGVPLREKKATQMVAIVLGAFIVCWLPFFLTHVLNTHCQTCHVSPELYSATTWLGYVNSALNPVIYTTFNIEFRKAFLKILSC
T1 sequence (P14416 whole entry): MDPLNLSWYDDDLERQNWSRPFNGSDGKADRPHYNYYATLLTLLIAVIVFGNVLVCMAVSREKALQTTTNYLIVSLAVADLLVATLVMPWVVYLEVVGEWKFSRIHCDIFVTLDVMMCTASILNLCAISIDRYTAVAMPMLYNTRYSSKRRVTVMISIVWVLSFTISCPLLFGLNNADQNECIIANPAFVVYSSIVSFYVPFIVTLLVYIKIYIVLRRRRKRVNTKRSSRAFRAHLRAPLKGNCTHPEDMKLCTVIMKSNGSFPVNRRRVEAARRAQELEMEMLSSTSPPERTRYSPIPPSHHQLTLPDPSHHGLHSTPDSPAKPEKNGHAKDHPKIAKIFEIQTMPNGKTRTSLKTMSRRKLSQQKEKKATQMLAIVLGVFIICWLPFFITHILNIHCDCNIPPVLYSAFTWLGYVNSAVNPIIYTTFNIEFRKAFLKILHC

As for `Cl.Cl.Fc1ccc(-c2cncc(CNC[C@H]3CCc4ccccc4O3)c2)cc1` [Sarizotan, 1-[(2R)-3,4-dihydro-2H-chromen-2-yl]-N-{[5-(4-fluorophenyl)pyridin-3-yl]methyl}methanamine dihydrochloride], the EC50 in data set [1], in data set [2] and in data set [3] was greater than 500 nM each time. Moreover, the Emax in data set [1] (setting [7]) was found to be 2%; in data set [1] (setting [8]), 101%; in data set [2] (read-out: Agonist assay Emax) it was 14%; in data set [2] (read-out: Antagonist assay Emax) it was 65%; in data set [3] (setting [7]) it was 5%; in data set [3] (setting [8]), 74%. For the same molecule, the figures for the IC50 in data set [1] (with 3 μM dopamine), in data set [2] and in data set [3] (with 3 μM dopamine) were 13.3 nM, 181 nM and 66.7 nM, respectively. Moreover, the “antagonist activity (in words)” value in data set [1] is “antagonist activity”; in data set [2], “weak antagonist activity”; in data set [3] it was “antagonist activity”. The “agonist activity (in words)” value in data set [2] was “did not exhibit an agonist activity”. The molecule further displayed an inhibitory constant (Ki) in data set [4] of 3.48 nM. In data set [4], the “binding affinity (in words)” value is “comparatively strong binding affinity”. Moreover, the “solubility (in words)” value in data set [5] was “poor in solubility”.
As for `O=C1c2ccccc2OC=C(Cl)N1CCCCN1CC=C(c2ccccn2)CC1` [SUN N4057, 3-chloro-4,5-dihydro-4-{4-[4-(2-pyridyl)-1,2,3,6-tetrahydropyridin-1-yl]butyl}-1,4-benzoxazepin-5-one.dihydrochloride-dihydrate], the EC50 was greater than 500 nM in data set [1], 2.12 nM in data set [2] (setting [10]) and greater than 500 nM in data set [3]. The Emax in data set [1] (setting [7]) amounted to 27%; in data set [1] (setting [8]), 47%; in data set [2] (setting [9]), 77%; in data set [2] (setting [11]), 13%; in data set [3] (setting [7]), 41%; in data set [3] (setting [8]), 25%. The IC50 in data set [1] (with 3 μM dopamine), in data set [2] (setting [12]) and in data set [3] (with 3 μM dopamine) was greater than 500 nM each time. Besides, the “antagonist activity (in words)” value in data set [1] is “does not have an antagonist action”; in data set [2] it was “no antagonist activity was exhibited”; in data set [3], “does not have an antagonist action”. For the same molecule, the “agonist activity (in words)” value in data set [2] was “strong agonist activity; also recorded: has an agonist action”. In addition, the Ki in data set [4] (Dopamine D3, read-out: Ki) is 42.8 nM. In addition, the “amount of locomotor activity” value in data set [6] is listed as “no significant change”.
In the case of `Cl.Cl.O=c1[nH]c2cccc(C3CCCN(Cc4cncc(-c5ccc(F)cc5)c4)C3)c2o1` (stereo not shown) [7-(1-{[5-(4-fluorophenyl)pyridin-3-yl]methyl}piperidin-3-yl)-1,3-benzoxazol-2(3H)-one dihydrochloride], the EC50 in data set [1] was greater than 500 nM; in data set [2] (setting [10]) it was 1.4 nM; in data set [3], greater than 500 nM. Further, the Emax in data set [1] (setting [7]) came out at 18%; in data set [1] (setting [8]), 75%; in data set [2] (setting [9]), 69%; in data set [2] (setting [11]) it was 22%; in data set [3] (setting [7]) it was 27%; in data set [3] (setting [8]), 69%. Moreover, the IC50 in data set [1] (with 3 μM dopamine) was 72.9 nM; in data set [2] (setting [12]) it was greater than 500 nM; in data set [3] (with 3 μM dopamine) it was 17.9 nM. Also, the “antagonist activity (in words)” value is recorded as “antagonist activity” in data set [1], “no antagonist activity was exhibited” in data set [2] and “antagonist activity” in data set [3]. Also, in data set [2], the “agonist activity (in words)” value is “strong agonist activity”. Also, the Ki in data set [4] (Dopamine D3, read-out: Ki) came out at 9.07 nM. Further, the “binding affinity (in words)” value in data set [4] is “comparatively strong binding affinity”.
